{"source": "ChEMBL document CHEMBL2203104", "about": "“Recent advances in antitubercular natural products” (Eur J Med Chem, 2012)", "key": {"[1]": {"system": "Mycobacterium tuberculosis", "assay": "Antimycobacterial activity against Mycobacterium tuberculosis 90-221387", "format": "functional"}, "[2]": {"assay": "Inhibition of Mycobacterium tuberculosis RNA polymerase"}, "[3]": {"system": "Vero", "assay": "Cytotoxicity against african green monkey Vero cells", "format": "cell-based", "settings": "Chlorocebus sabaeus"}, "[4]": {"system": "Mycobacterium tuberculosis", "assay": "Antimycobacterial activity against Mycobacterium tuberculosis H37Rv", "format": "functional", "settings": "Mycobacterium tuberculosis, H37Rv; read-out: MIC"}, "[5]": {"assay": "Selectivity index, ratio of IC50 for african green monkey Vero cells to MIC for Mycobacterium tuberculosis H37Rv", "format": "functional"}, "[6]": {"target": "T1, 3-oxoacyl-[acyl-carrier-protein] synthase 1 (Mycobacterium tuberculosis, UniProt P9WQD9)", "T1 sequence (P9WQD9 whole entry)": "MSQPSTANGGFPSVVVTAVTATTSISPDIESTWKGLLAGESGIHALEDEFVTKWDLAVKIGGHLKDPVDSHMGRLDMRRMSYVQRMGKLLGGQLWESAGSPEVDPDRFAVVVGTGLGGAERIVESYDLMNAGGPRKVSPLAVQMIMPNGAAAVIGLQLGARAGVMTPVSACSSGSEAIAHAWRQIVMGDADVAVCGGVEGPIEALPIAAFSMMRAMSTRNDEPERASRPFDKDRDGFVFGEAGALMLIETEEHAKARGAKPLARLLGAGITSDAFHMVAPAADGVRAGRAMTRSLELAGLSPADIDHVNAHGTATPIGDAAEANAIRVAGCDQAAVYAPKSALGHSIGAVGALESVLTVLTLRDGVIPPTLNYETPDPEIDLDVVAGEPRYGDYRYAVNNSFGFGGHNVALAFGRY", "assay": "Inhibition of Mycobacterium tuberculosis H37Rv Fab1"}, "[7]": {"system": "Mycobacterium tuberculosis", "assay": "Antimycobacterial activity against Mycobacterium tuberculosis isolate CIBIN/UMF 15:19", "format": "functional"}, "[8]": {"system": "Mycobacterium tuberculosis", "assay": "Antimycobacterial activity against Mycobacterium tuberculosis H37Rv ATCC 27294", "format": "functional"}, "[9]": {"system": "Mycobacterium tuberculosis", "assay": "Antimycobacterial activity against Mycobacterium tuberculosis at 128 ug/mL", "format": "functional", "settings": "read-out: GI"}, "[10]": {"system": "Mycobacterium tuberculosis", "assay": "Growth inhibition of Mycobacterium tuberculosis H37Rv at 6.25 ug/ml", "format": "functional", "settings": "read-out: GI"}, "[11]": {"system": "Mycobacterium tuberculosis", "assay": "Antimycobacterial activity against Mycobacterium tuberculosis", "format": "functional"}, "[12]": {"system": "Mycobacterium tuberculosis", "assay": "Antimycobacterial activity against Mycobacterium tuberculosis isolate no. 246", "format": "functional"}}}
{"compound": "CC(C)=CCC/C(C)=C/CC/C(C)=C/CC/C=C(\\C)CC/C=C(\\C)CCC=C(C)C", "note": "[SQUALENE]", "values": [{"measurement": "MIC", "setting": "[1]", "value": 28, "unit": "µg/mL"}]}
{"compound": "CCC/C(C)=C/C=C(\\C)C(=O)c1c(O)cc([C@H](C)CC/C=C/NC(=O)OC)oc1=O", "note": "[MYXOPORIN A]", "values": [{"measurement": "IC50", "setting": "[2]", "value": 1000, "unit": "nM"}]}
{"compound": "C=C(CC[C@@H](C)[C@H]1CC[C@H]2[C@@H]3C(C=O)=C4C[C@@H](O)CC[C@]4(C)[C@H]3CC[C@]12C)C(C)C", "note": "[PARGUESTEROL A]", "values": [{"measurement": "IC50", "setting": "[3]", "value": 52, "unit": "µg/mL"}, {"measurement": "MIC", "setting": "[4]", "value": 7.8, "unit": "µg/mL"}, {"measurement": "Selectivity Index", "setting": "[5]", "value": "<7"}]}
{"compound": "O=C1c2cccnc2-c2nccc3c2c1nc1ccccc13", "note": "[ASCIDIDEMIN]", "values": [{"measurement": "IC50", "setting": "[3]", "value": 140, "unit": "nM"}, {"measurement": "MIC", "setting": "[4]", "value": 0.35, "unit": "µM"}, {"measurement": "Selectivity Index", "setting": "[5]", "value": "<1"}]}
{"compound": "COc1cc([C@H]2O[C@@]3(c4cc(OC)c(OC)c(OC)c4)O[C@@]3(C)[C@@H]2C)cc(OC)c1OC", "values": [{"measurement": "MIC", "setting": "[1]", "value": 40, "unit": "µg/mL"}]}
{"compound": "CCCCCCCc1cc(O)c(CCCCCC)c(=O)o1", "note": "[PSEUDOPYRONINES B]", "values": [{"measurement": "IC50", "setting": "[6]", "value": 3800, "unit": "nM"}, {"measurement": "MIC", "setting": "[4]", "value": 0.78, "unit": "µg/mL"}]}
{"compound": "CC(C)[C@H]1CC[C@H]2[C@@H]3C=C[C@](C)(O)CC[C@]3(C)CC[C@]12CO", "note": "[MULINOL]", "values": [{"measurement": "MIC", "setting": "[7]", "value": 12.5, "unit": "µg/mL"}, {"measurement": "MIC", "setting": "[8]", "value": 12.5, "unit": "µg/mL"}]}
{"compound": "C=C(C)[C@@H]1CCC2=C[C@@H](OC2=O)C2=C(C)C[C@](O)(C2=O)[C@H](C)[C@@H](O)C1=O", "note": "[CORALLOLIDE B]", "values": [{"measurement": "inhibition of growth at 128 µg/mL", "setting": "[9]", "value": 95, "unit": "%"}]}
{"compound": "CCCOC(=O)[C@]12CC[C@@]3(C)C[C@H]4O[C@@]4(C)[C@H]4O[C@H]4[C@H]3[C@@H]1CC[C@@H]2C(C)C", "values": [{"measurement": "MIC", "setting": "[7]", "value": 6.25, "unit": "µg/mL"}, {"measurement": "MIC", "setting": "[8]", "value": 6.25, "unit": "µg/mL"}]}
{"compound": "COc1ccc(C(=O)OC2=C(C(C)C)C(=O)C3=C(C2=O)[C@@]2(C)CCCC(C)(C)[C@@H]2[C@H](O)[C@H]3OC(C)=O)cc1", "values": [{"measurement": "IC50", "setting": "[3]", "value": 2.58, "unit": "µg/mL"}, {"measurement": "MIC", "setting": "[4]", "value": 3.12, "unit": "µg/mL"}]}
{"compound": "COc1cc([C@H]2O[C@@H](c3cc(OC)c(OC)c(OC)c3)[C@@H](C)[C@@H]2C)cc(OC)c1OC", "note": "[BEILSCHMIN B]", "values": [{"measurement": "MIC", "setting": "[1]", "value": 7.5, "unit": "µg/mL"}]}
{"compound": "C[C@@H]1CC[C@@H]2[C@@H](C)C[C@@H](C(=O)/C=C\\O)[C@]2(O)C1=O", "note": "[ELISABETHIN H]", "values": [{"measurement": "inhibition of growth at 6.25 µg/mL", "setting": "[10]", "value": 51, "unit": "%"}]}
{"compound": "C#C[C@@]12O[C@]1(C=O)[C@]1(C)CC[C@H]3C(C)(C)CCC[C@]3(C)[C@H]1CC2=O", "note": "[ESCOBARINE A]", "values": [{"measurement": "MIC", "setting": "[7]", "value": 12.5, "unit": "µg/mL"}, {"measurement": "MIC", "setting": "[8]", "value": 25, "unit": "µg/mL"}]}
{"compound": "C=C(CC[C@@H](C)[C@H]1CC[C@H]2[C@@H]3C(C=O)[C@]4(O)C[C@@H](O)CC[C@]4(C)[C@H]3CC[C@]12C)C(C)C", "note": "(stereo partly specified) [PARGUESTEROL B]", "values": [{"measurement": "IC50", "setting": "[3]", "value": 52, "unit": "µg/mL"}, {"measurement": "MIC", "setting": "[4]", "value": 11.2, "unit": "µg/mL"}, {"measurement": "Selectivity Index", "setting": "[5]", "value": "<7"}]}
{"compound": "C/C=C/C/C=C(\\C)C(O)CC/C(C)=C/C=C(\\C)C(=O)c1c(O)cc([C@H](C)CC/C=C/NC(=O)OC)oc1=O", "note": "(stereo partly specified) [CORALLOPYRONIN A]", "values": [{"measurement": "IC50", "setting": "[2]", "value": 4000, "unit": "nM"}]}
{"compound": "O=C(CCCCCCCCCCCC[C@H]1C=CCC1)OCC(O)CO", "note": "(stereo partly specified) [ANTHELMINTHICINS C]", "values": [{"measurement": "MIC", "setting": "[4]", "value": 4.38, "unit": "µM"}, {"measurement": "MIC", "setting": "[11]", "value": 11.3, "unit": "µM"}]}
{"compound": "CCCCCC(CC(=O)N1N=CCCC1C(=O)N[C@H]1COC(=O)[C@H]2CCCNN2C(=O)[C@H](C)NC(=O)[C@@H](CC(C)C)NC1=O)C(=O)O", "note": "(stereo partly specified) [LYDIAMYCIN A]", "values": [{"measurement": "MIC", "setting": "[12]", "value": 25, "unit": "µg/mL"}, {"measurement": "MIC", "setting": "[4]", "value": 12.5, "unit": "µg/mL"}]}
{"compound": "C/C(=C\\Cc1ccccc1)CC[C@@]1(O)C[C@H]2C[C@@H](C/C(C)=C/C/C=C/C/C(CC(=O)O)=C\\C(=O)O2)O1", "note": "[RIPOSTATIN A]", "values": [{"measurement": "IC50", "setting": "[2]", "value": 800, "unit": "nM"}]}
{"compound": "CC(=O)OC[C@@]12CC[C@]3(C)[C@@H](C(C)C)CC[C@H]3[C@@]13C[C@H]3[C@](C)(O)CC2", "values": [{"measurement": "MIC", "setting": "[7]", "value": 12.5, "unit": "µg/mL"}, {"measurement": "MIC", "setting": "[8]", "value": 12.5, "unit": "µg/mL"}]}
{"compound": "CCCCOC(=O)[C@]12CC[C@@]3(C)C[C@H]4O[C@@]4(C)[C@H]4O[C@H]4[C@H]3[C@@H]1CC[C@@H]2C(C)C", "values": [{"measurement": "MIC", "setting": "[7]", "value": 6.25, "unit": "µg/mL"}, {"measurement": "MIC", "setting": "[8]", "value": 6.25, "unit": "µg/mL"}]}
{"compound": "CC[C@@H](CO)NCCN[C@@H](CC)CO", "note": "[ETHAMBUTOL]", "values": [{"measurement": "MIC", "setting": "[1]", "value": 6.2, "unit": "µg/mL"}]}
